Laboratory results as given in US8563714B2, “Bridged spiro [2.4] heptane derivatives as ALX receptor and/or FPRL2 agonists” (Actelion Pharmaceuticals Ltd., priority 2009, dated 2013).

Columns and labels:
human ALX receptor = biological target: T1, human ALX receptor (Homo sapiens, UniProt P25090); assay: Intracellular calcium measurements (FLIPR), agonistic activity in HEK293-hALXR-Gα16 cells; format: cell-based; settings: Fluo-4 calcium FLIPR, normalized to WKYMVm 10 nM
T1 construct: expressed in transfected cells; host or cells: HEK293 (HEK293-hALXR-Gα16)
T1 sequence (P25090 1-351): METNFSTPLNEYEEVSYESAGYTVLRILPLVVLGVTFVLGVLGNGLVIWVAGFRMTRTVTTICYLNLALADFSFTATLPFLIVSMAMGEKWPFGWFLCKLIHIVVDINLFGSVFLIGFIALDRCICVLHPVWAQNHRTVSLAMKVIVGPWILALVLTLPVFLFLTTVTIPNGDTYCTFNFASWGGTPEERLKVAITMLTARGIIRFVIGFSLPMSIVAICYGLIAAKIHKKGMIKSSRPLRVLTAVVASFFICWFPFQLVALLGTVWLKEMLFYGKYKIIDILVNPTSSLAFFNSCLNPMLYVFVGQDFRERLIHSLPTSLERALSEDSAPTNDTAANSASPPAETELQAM
Procedure, shortened: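 Agonist-induced calcium flux was recorded by FLIPR (488/540 nm) in HEK293-hALXR-Gα16 cells pre-loaded with Fluo-4 AM (1 μM, 60 min, 37°C). Peak signal above baseline, after subtracting buffer addition, was expressed relative to WKYMVm at 10 nM final.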

human FPRL2 = biological target: T2, human FPRL2 (Homo sapiens, UniProt P25089); assay: Intracellular calcium measurements (FLIPR), agonistic activity in HEK293-hFPRL2-Gα16 cells; format: cell-based; settings: Fluo-4 calcium FLIPR, normalized to GLY14-Humanin 100 nM
T2 construct: expressed in transfected cells; host or cells: HEK293 (HEK293-hFPRL2-Gα16)
T2 sequence (P25089 1-353): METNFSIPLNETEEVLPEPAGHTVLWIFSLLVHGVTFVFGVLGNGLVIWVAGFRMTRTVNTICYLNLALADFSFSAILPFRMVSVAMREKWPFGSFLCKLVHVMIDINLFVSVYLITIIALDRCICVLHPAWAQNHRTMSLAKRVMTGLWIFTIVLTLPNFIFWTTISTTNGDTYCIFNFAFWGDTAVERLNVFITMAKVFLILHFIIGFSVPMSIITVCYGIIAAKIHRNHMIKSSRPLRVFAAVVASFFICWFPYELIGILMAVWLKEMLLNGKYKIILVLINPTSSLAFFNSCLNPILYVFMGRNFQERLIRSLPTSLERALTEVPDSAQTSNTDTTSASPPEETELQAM
Procedure, shortened: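 Peak values after baseline subtraction are expressed relative to 100 nM Gly14-Humanin; compounds diluted in assay buffer from 10 mM DMSO stocks.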

EC50 (human ALX receptor) [nM]	EC50 (human FPRL2) [nM]	SMILES
131	1770	Cc1ccc(NC(=O)C2C(C(=O)NCCCCN3CCCC3)C3C=CC2C32CC2)cn1 (stereo not drawn) [Example 253, (5R*)—N^5-(2-Methyl-pyridin-5-yl)-(6R*)—N^6-(4-pyrrolidin-1-yl-butyl)-(4S*,7R*)-[4,7-ethenylene-spiro[2.4]heptane]-5,6-dicarboxamide]
> 25000	180	COc1ccc(C)cc1CNC(=O)[C@H]1[C@H](C(=O)NCCCCN2CCCC2)[C@H]2C=C[C@@H]1C21CC1 (racemic) [Example 370, (5R*)—N^5-(2-Methoxy-5-methylphenyl-methyl)-(6R*)—N^6-(4-pyrrolidino-butyl)-(4S*,7R*)-[4,7-ethenylene-spiro[2.4]heptane]-5,6-dicarboxamide]
0.53	423	O=C(NCCCCN1CCOCC1)[C@H]1[C@H](C(=O)Nc2ccc(Br)cc2)[C@@H]2C=C[C@H]1C21CC1 [Example 211, (5R)—N^5-(4-Bromophenyl)-(6R)—N^6-(4-morpholino-butyl)-(4S,7R)-[4,7-ethenylene-spiro[2.4]heptane]-5,6-dicarboxamide]
166	6370	N#Cc1cnc(NC(=O)[C@H]2[C@H](C(=O)NCCCCN3CCCC3)[C@H]3C=C[C@@H]2C32CC2)s1 (racemic) [Example 130, (5R*)—N^5-(5-Cyano-thiazol-2-yl)-(6R*)—N^6-(4-pyrrolidin-1-yl-butyl)-(4S*,7R*)-[4,7-ethenylene-spiro[2.4]heptane]-5,6-dicarboxamide]
9	224	COc1ccc(NC(=O)[C@H]2[C@H](C(=O)NCCCCN3CCCC3)[C@H]3C=C[C@@H]2C32CC2)cc1 [Example 285, (5R)—N^5-(4-Methoxyphenyl)-(6R)—N^6-(4-pyrrolidino-butyl)-(4S,7R)-[4,7-ethenylene-spiro[2.4]heptane]-5,6-dicarboxamide]
2.3	15	CCN1CCN(CCCCNC(=O)[C@H]2[C@H](C(=O)Nc3ccc(Br)cc3)[C@@H]3C=C[C@H]2C32CC2)CC1 [Example 208, (5R)—N^5-(4-Bromophenyl)-(6R)—N^6-(4-(4-ethyl-piperazin-1-yl)-butyl)-(4S,7R)-[4,7-ethenylene-spiro[2.4]heptane]-5,6-dicarboxamide]
223	436	CC(=O)c1ccc(CNC(=O)[C@H]2[C@H](C(=O)NCCCCN3CCCC3)[C@H]3C=C[C@@H]2C32CC2)s1 (racemic) [Example 194, (5R*)—N^5-(5-Acetyl-thiophen-2-yl-methyl)-(6R*)—N^6-(4-pyrrolidin-1-yl-butyl)-(4S*,7R*)-[4,7-ethenylene-spiro[2.4]heptane]-5,6-dicarboxamide]
2910	254	CCOc1ccc(CNC(=O)C2C(C(=O)NCCCCN3CCCC3)C3C=CC2C32CC2)cc1 (stereo not drawn) [Example 386, (5R*)—N^5-(4-Ethoxyphenyl-methyl)-(6R*)—N^6-(4-pyrrolidino-butyl)-(4S*,7R*)-[4,7-ethenylene-spiro[2.4]heptane]-5,6-dicarboxamide]
352	224	CC(C)CCNC(=O)[C@H]1[C@H](C(=O)NCCCCN2CCCC2)[C@H]2C=C[C@@H]1C21CC1 (racemic) [Example 135, (5R*)—N^5-(3-Methyl-butyl)-(6R*)—N^6-(4-pyrrolidin-1-yl-butyl)-(4S*,7R*)-[4,7-ethenylene-spiro[2.4]heptane]-5,6-dicarboxamide]
73	176	O=C(NCCCCN1CCCC1)[C@H]1[C@H](C(=O)NCc2nc(Br)cs2)[C@@H]2C=C[C@H]1C21CC1 (racemic) [Example 234, (5R*)—N^5-(4-Bromo-thiazol-2-yl-methyl)-(6R*)—N^6-(4-pyrrolidin-1-yl-butyl)-(4S*,7R*)-[4,7-ethenylene-spiro[2.4]heptane]-5,6-dicarboxamide]
1.3	116	O=C(NCCCCN1CCCC1)[C@H]1[C@H](C(=O)Nc2ccc(Br)cc2F)[C@@H]2C=C[C@H]1C21CC1 [Example 295, (5R)—N^5-(4-Bromo-2-fluorophenyl)-(6R)—N^6-(4-pyrrolidino-butyl)-(4S,7R)-[4,7-ethenylene-spiro[2.4]heptane]-5,6-dicarboxamide]

More lines, now with the values behind:

SMILES	EC50 (human ALX receptor) [nM]	EC50 (human FPRL2) [nM]
O=C(NC1CCCNC1)[C@H]1[C@H](C(=O)Nc2ncc(Br)s2)[C@@H]2CC[C@H]1C21CC1 (stereo partly drawn) [Example 415, (5R)—N^5-(5-Bromothiazol-2-yl)-(6R)—N^6-(piperidin-3-yl)-(4S,7R)-[4,7-ethylene-spiro[2.4]heptane]-5,6-dicarboxamide]	9.1	354
O=C(NCCC(F)CN1CCCC1)[C@H]1[C@H](C(=O)Nc2ccc(Br)cc2)[C@@H]2C=C[C@H]1C21CC1 (stereo partly drawn) [Example 399, (5R)—N^5-(4-Bromophenyl)-(6R)—N^6-(3-fluoro-4-(pyrrolidin-1-yl)butyl)-(4S,7R)-[4,7-ethenylene-spiro[2.4]heptane]-5,6-dicarboxamide]	5	4770
O=C(Nc1ccc(Br)cc1)C1C(C(=O)NC2CCC(CN3CCCC3)CC2)C2C=CC1C21CC1 (single isomer, unassigned) [Example 218]	2.1	356
O=C(NCCCCN1CCCC1)[C@H]1[C@H](C(=O)NCc2cc(F)c(Br)c(F)c2)[C@@H]2C=C[C@H]1C21CC1 [Example 328, (5R)—N^5-(4-Bromo-3,5-difluorophenyl-methyl)-(6R)—N^6-(4-pyrrolidino-butyl)-(4S,7R)-[4,7-ethenylene-spiro[2.4]heptane]-5,6-dicarboxamide]	46	60
O=C(NCCCO)[C@H]1[C@H](C(=O)Nc2ccc(Br)cc2)[C@@H]2C=C[C@H]1C21CC1 [Example 12, (5R)—N^5-(4-Bromophenyl)-(6R)—N^6-(3-hydroxy-propyl)-(4S,7R)-[4,7-ethenylene-spiro[2.4]heptane]-5,6-dicarboxamide]	1	1300
CC1CCC(C)N1CCCCNC(=O)[C@H]1[C@H](C(=O)Nc2ccc(Br)cc2)[C@@H]2C=C[C@H]1C21CC1 (stereo partly drawn) [Example 397, (5R)—N^5-(4-Bromophenyl)-(6R)—N^6-(4-(2,5-dimethylpyrrolidin-1-yl)butyl)-(4S,7R)-[4,7-ethenylene-spiro[2.4]heptane]-5,6-dicarboxamide]	2.1	149
CC(C)CNC(=O)C1C(C(=O)Nc2ncc(Br)s2)C2C=CC1C21CC1 (stereo not drawn) [Example 245, (5R*)—N^5-(5-Bromo-thiazol-2-yl)-(6R*)—N^6-(isobutyl)-(4S*,7R*)-[4,7-ethenylene-spiro[2.4]heptane]-5,6-dicarboxamide]	3.9	8240
NC(=O)CCNC(=O)[C@H]1[C@H](C(=O)Nc2ccc(Cl)nc2)[C@@H]2CC[C@H]1C21CC1 [Example 298, (5R)—N^5-(2-Chloro-pyridin-5-yl)-(6R)—N^6-(3-amino-3-oxopropyl)-(4S,7R)-[4,7-ethylene-spiro[2.4]heptane]-5,6-dicarboxamide]	24	4070
O=C(NCCCN1CCCC1)[C@H]1[C@H](C(=O)Nc2ccc(Br)cc2)[C@@H]2CC[C@H]1C21CC1 (racemic) [Example 110, (5R*)—N^5-(4-Bromophenyl)-(6R*)—N^6-(3-pyrrolidin-1-yl-propyl)-(4S*,7R*)-[4,7-ethylene-spiro[2.4]heptane]-5,6-dicarboxamide]	16	307
O=C(NC[C@H]1[C@H](C(=O)Nc2ccc(Br)cc2)[C@@H]2C=C[C@H]1C21CC1)C1CCCC1 (racemic) [Example 179, (5R*)—N^5-(4-Bromo-phenyl)-(6R*)-6-{[(cyclopentyl-carbonyl)-amino]-methyl}-(4S*,7R*)-[4,7-ethenylene-spiro[2.4]heptane]-5-carboxamide]	200	1380
O=C(CCc1ccc(F)cc1)NC[C@H]1[C@H](C(=O)Nc2ccc(Br)cc2)[C@@H]2C=C[C@H]1C21CC1 (racemic) [Example 188, (5R*)—N^5-(4-Bromo-phenyl)-(6R*)-6-[(3-(4-fluoro-phenyl)-propionylamino)-methyl]-(4S*,7R*)-[4,7-ethenylene-spiro[2.4]heptane]-5-carboxamide]	529	1920
CC(C)(C)OC(=O)NCCNC(=O)C1C(C(=O)Nc2ccc(Br)cc2)C2C=CC1C21CC1 (stereo not drawn) [Example 27, (5R*)—N^5-(4-Bromophenyl)-(6R*)—N^6-(2-tert-butoxycarbonyl-amino-ethyl)-(4S*,7R*)-[4,7-ethenylene-spiro[2.4]heptane]-5,6-dicarboxamide]	4.2	1960
